Data as given in US11655239B2 (SHANGHAI INSTITUTE OF MATERIAL MEDICA, CHINESE ACADEMY OF …, priority 2019, dated 2023).

Key:
[1] = tested on: lung fibroblast cell line MRC-5; test: Cytotoxic activity test (MTS), MRC-5; type: cell-based, human; conditions: 5 μM
Experimental: (§1) Experimental objective: The cytotoxic activity of compound S15 on bronchial epithelial cell line Beas-2B and lung fibroblast cell line MRC-5 was tested.
(§2) 1) The human bronchial epithelial cell line Beas-2B and the human embryonic lung fibroblast cell line MRC-5 were collected, and inoculated at a certain density (about 5000-10000 cells) on a 96-well plate (the edge wells were filled with sterile water or PBS). A control was set on each plate (100 μL of culture medium was added);
(§3) 2) The plate was incubated overnight at 37° C., 5% CO2. The plate was turned upside down and observed under the microscope.
(§4) 3) The solutions of different concentrations of the compounds to be tested were added to each well, and a control well (culture medium and MTS solution with cells but no drug) and a blank well (without cells, medium and MTS solution) were set, 3 to 5 repetition wells were set for each group. Incubation was performed at 37° C. for 48-72 hours.
(§5) 4) 10 μL/well of MTS/PMS (20:1, Promega Corp) solution was added to each well containing 100 μL of culture medium, and then the plate was gently shaken. The plate was incubated at 37° C. for 2 to 4 hours.
(§6) 5) M5 microplate reader (Molecular Device, USA) was used to measure the absorbance of the solution at 490 nm. […]

[2] = tested on: bronchial epithelial cell line Beas-2B; test: Cytotoxic activity test (MTS), Beas-2B; type: cell-based, human; conditions: 5 μM
Experimental: as §1, §2, §3, §4, §5, §6

[3] = tested on: mouse model of BLM-induced lung injury; test: Histopathological evaluation of lung sections, H&E staining; type: in vivo; conditions: mice
Experimental: Experimental objective: This group of experiments aimed to investigate the therapeutic potential of the compound S15 in acute lung injury and inflammation induced by bleomycin (BLM).
Experimental grouping (8 mice per group):
Model group (BLM): the mice received BLM (1.7 U/kg) via intratracheal instillation;
Compound S15 group (S15): this group was divided into three dose groups, namely 30, 60 and 90 mg/kg;
Positive control group (Nintedanib): Nintedanib administration group;
Negative control group (Control): only saline was used.
1) Material acquisition: The fresh tissue was fixed in 4% paraformaldehyde for more than 24 hours. The tissue was removed from the fixative solution and trim the tissue at the target site. The trimmed tissue was marked and placed in the dehydration box for later use.
2) Dehydration: The dehydration box was put in the dehydrator and different concentration gradients of ethanol was used sequentially for dehydration. 75% ethanol (4 hours), 85% ethanol (2 hours), 90% ethanol (2 hours), 95% ethanol (1 hour), absolute ethanol I (30 minutes), absolute ethanol II (30 minutes), alcohol benzene (5-10 minutes), xylene I (5-10 minutes), xylene II (5-10 minutes), wax I (1 hour), wax II (1 hour), wax III (1 hour).
3) Embedment: The wax melted at high temperature was put into the embedding frame; before the wax was cooled and solidified, the tissue was taken out of the dehydration box, put into the embedding frame according to the requirements of the embedding surface, marked and cooled at −20° C. After completely solidified, the wax block was removed from the embedding frame and trimmed.
4) Section: The trimmed wax block was put on a paraffin microtome for sectioning. The section thickness was about 4 μm. The sections were floated on warm water at 40° C. of the flotation workstation and flatten. A glass slide was used to lift the tissue from the warm water, and put into a 60° C. oven for dryness. After the water was dried and the wax melted, the glass slide was taken out and stored at ambient temperature for later use. […]

[4] = molecular target: DDR2 (Homo sapiens (Human), UniProt Q16832); test: DDR2 enzyme activity test (ELISA); type: biochemical; conditions: read-out: DDR2 IC50
Experimental: The optical rotation and the inhibitory activity against DDR2 enzyme of the compounds S11-A and S11-B obtained by the resolution in Example 12, and the chirally synthesized compounds S11-A′ and S11-B′ in Example 13 were tested (referred to the operation in Effect example 1), and the results are shown in Table 3 below:
Detection method: Enzyme-linked immunosorbent assay (ELISA)
Test receptor tyrosine kinase: DDR2
The kinase used in the experiment was obtained by our laboratory using the insect baculovirus expression system to express and purify the recombinant protein containing the protein kinase region; polyglutamic acid-tyrosine peptide segment [Poly(Glu, Tyr) 4:1] and sodium vanadate were purchased from Sigma; the anti-phosphorylated monoclonal antibody PY99 was purchased from Santa Cruz; horseradish peroxidase labeled goat anti-murine secondary antibody was purchased from Calbiochem; ATP and OPD were purchased from Sangon Biotech (Shanghai) Co., Ltd.; the remaining reagents were purchased from Sinopharm Chemical Reagent Co., Ltd. The reaction ELISA plate (#2592) was purchased from Corning. The full-wavelength microplate reader for experiment reading was a product of Molecular Device, model: SpectraMax 190; the experimental water was distilled water produced by Sinopharm Group.
The compound was centrifuged at 12,000 g for 5 min, and DMSO was added to prepare a 10^-2M stock solution, which was vortexed evenly, then sonicated for 10 min and stored at −40° C. for later use. During the test, the compound was diluted with DMSO from the stock solution to 100 times the test concentration (the DMSO concentration in the system was 1%).
(§7) 1) Enzyme reaction substrate Poly(Glu, Tyr) 4:1 was diluted to 20 μg/mL with potassium-free PBS (10 mM sodium phosphate buffer, 150 mM NaCl, pH 7.2-7.4), and the microtiter plate was coated with 125 μL/well and placed at 37° C. for 12-16 hours of reaction. The liquid in the well was discard. The plate was washed three times with T-PBS (potassium-free PBS containing 0.1% Tween-20, 200 μL/well), 5 minutes each time. The ELISA plate was dried in an oven at 37° C. for 1 to 2 hours.
(§8) 2) Reaction buffer (50 mM HEPES pH 7.4, 50 mM MgCl2, 0.5 mM MnCl2, 0.2 mM Na3VO4, 1 mM DTT) diluted ATP solution (49 μL) was added to each well, 1 μL of the compound to be tested was added to each well, and then 50 μL of DDR2 kinase domain recombinant protein diluted in the reaction buffer was added to start the reaction. Two control wells without ATP were set in each experiment. The plate placed on a shaker (100 rpm) at 37° C. for 1 hour of reaction. The liquid in the well was discarded and the plate was washed three times with T-PBS.
(§9) 3) Antibody PY99 dilution solution (the antibody was diluted 1:500 with T-PBS containing BSA 5 mg/mL) was added at 100 μL/well, and shaken on a shaker at 37° C. for 0.5 hour of reaction. The liquid in the well was discarded and the plate was washed three times with T-PBS.
(§10) 4) Horseradish peroxidase labeled goat anti-murine secondary antibody dilution solution (the antibody is diluted 1:2000 with T-PBS containing BSA 5 mg/ml) was added at 100 μL/well, and shaken on a shaker at 37° C. for 0.5 hour of reaction. The liquid in the well was discarded and the plate was washed three times with T-PBS.
(§11) 5) 2 mg/ml of OPD color developing solution [diluted with 0.1 M citric acid-sodium citrate buffer (pH=5.4) containing 0.03% H2O2] was added at 100 μL/well and reacted for 1 to 10 minutes at 25° C. in the dark.
(§12) 6) 2M H2SO4 was added at 50 μL/well to stop the reaction, and a tunable wavelength microplate reader VERSAmax was used for reading at a wavelength of 490 nm.
The IC50 value was obtained by four-parameter regression using the software that came with the microplate reader.

[5] = molecular target: VEGFR-1 (Homo sapiens (Human), UniProt P17948); test: Enzyme selectivity test (ELISA), VEGFR-1; type: biochemical
Experimental: as §7, §8, §9, §10, §11, §12
(§13) The IC50 value was obtained by four-parameter regression using the software that came with the microplate reader. […]

[6] = molecular target: PDGFR-α (Homo sapiens (Human), UniProt P16234); test: Enzyme selectivity test (ELISA), PDGFR-α; type: biochemical
Experimental: as §7, §8, §9, §10, §11, §12, §13

[7] = molecular target: PDGFR-β (Homo sapiens (Human), UniProt P09619); test: Enzyme selectivity test (ELISA), PDGFR-β; type: biochemical
Experimental: as §7, §8, §9, §10, §11, §12, §13

[8] = molecular target: C-Kit (Homo sapiens (Human), UniProt P10721); test: Enzyme selectivity test (ELISA), C-Kit; type: biochemical
Experimental: as §7, §8, §9, §10, §11, §12, §13

[9] = molecular target: Flt-3 (Homo sapiens (Human), UniProt P36888); test: Enzyme selectivity test (ELISA), Flt-3; type: biochemical
Experimental: as §7, §8, §9, §10, §11, §12, §13

[10] = molecular target: EGFR (Homo sapiens (Human), UniProt P00533); test: Enzyme selectivity test (ELISA), EGFR; type: biochemical
Experimental: as §7, §8, §9, §10, §11, §12, §13

[11] = molecular target: ErbB2 (Homo sapiens (Human), UniProt P04626); test: Enzyme selectivity test (ELISA), ErbB2; type: biochemical
Experimental: as §7, §8, §9, §10, §11, §12, §13

[12] = molecular target: ErbB4 (Homo sapiens (Human), UniProt Q15303); test: Enzyme selectivity test (ELISA), ErbB4; type: biochemical
Experimental: as §7, §8, §9, §10, §11, §12, §13

[13] = molecular target: Src (Homo sapiens (Human), UniProt P12931); test: Enzyme selectivity test (ELISA), Src; type: biochemical
Experimental: as §7, §8, §9, §10, §11, §12, §13

[14] = molecular target: Abl (Homo sapiens (Human), UniProt P00519); test: Enzyme selectivity test (ELISA), Abl; type: biochemical
Experimental: as §7, §8, §9, §10, §11, §12, §13

[15] = molecular target: EPH-A2 (Homo sapiens (Human), UniProt P29317); test: Enzyme selectivity test (ELISA), EPH-A2; type: biochemical
Experimental: as §7, §8, §9, §10, §11, §12, §13

[16] = molecular target: IGF-1R (Homo sapiens (Human), UniProt P08069); test: Enzyme selectivity test (ELISA), IGF-1R; type: biochemical
Experimental: as §7, §8, §9, §10, §11, §12, §13

[17] = molecular target: AXL (Homo sapiens (Human), UniProt P30530); test: Enzyme selectivity test (ELISA), AXL; type: biochemical
Experimental: as §7, §8, §9, §10, §11, §12, §13

[18] = molecular target: Met (Homo sapiens (Human), UniProt P08581); test: Enzyme selectivity test (ELISA), Met; type: biochemical
Experimental: as §7, §8, §9, §10, §11, §12, §13

[19] = molecular target: ALK (Homo sapiens (Human), UniProt Q9UM73); test: Enzyme selectivity test (ELISA), ALK; type: biochemical
Experimental: as §7, §8, §9, §10, §11, §12, §13

[20] = molecular target: RET (Homo sapiens (Human), UniProt P07949); test: Enzyme selectivity test (ELISA), RET; type: biochemical
Experimental: as §7, §8, §9, §10, §11, §12, §13

[21] = molecular target: FGFR-1 (Homo sapiens (Human), UniProt P11362); test: Enzyme selectivity test (ELISA), FGFR-1; type: biochemical
Experimental: as §7, §8, §9, §10, §11, §12, §13

[22] = molecular target: FGFR-2 (Homo sapiens (Human), UniProt P21802); test: Enzyme selectivity test (ELISA), FGFR-2; type: biochemical
Experimental: as §7
(§14) 2) Reaction buffer (50 mM HEPES pH 7.4, 50 mM MgCl2, 0.5 mM MnCl2, 0.2 mM Na3VO4, 1 mM DTT) diluted ATP solution (49 μL) was added to each well, 1 μL of the compound to be tested was added to each well, and then 50 μL of DDR2 kinase domain recombinant protein diluted in the reaction buffer was added to start the reaction. Two control wells without ATP were set in each experiment. The plate placed on a shaker (100 rpm) at 37° C. for 1 hour of reaction. The liquid in the well was discarded and the plate was washed three times with T-PBS. […]
as §12, §13

[23] = molecular target: FGFR-3 (Homo sapiens (Human), UniProt P22607); test: Enzyme selectivity test (ELISA), FGFR-3; type: biochemical
Experimental: as §7, §14, §12, §13

[24] = molecular target: FGFR-4 (Homo sapiens (Human), UniProt P22455); test: Enzyme selectivity test (ELISA), FGFR-4; type: biochemical
Experimental: as §7, §14, §12, §13

[25] = molecular target: KDR (Homo sapiens (Human), UniProt P35968); test: Enzyme selectivity test (ELISA), KDR; type: biochemical
Experimental: as §7, §8, §9, §10, §11, §12, §13

[26] = tested on: kinases; test: Enzyme selectivity test, kinase panel overall; type: biochemical; conditions: kinase panel of Table 5
Source text: Except that the enzyme was different, other test methods and conditions were the same as the DDR2 enzyme activity test method in Effect example 1.

Sequence of FGFR-3 (P22607 23-806, species assumed): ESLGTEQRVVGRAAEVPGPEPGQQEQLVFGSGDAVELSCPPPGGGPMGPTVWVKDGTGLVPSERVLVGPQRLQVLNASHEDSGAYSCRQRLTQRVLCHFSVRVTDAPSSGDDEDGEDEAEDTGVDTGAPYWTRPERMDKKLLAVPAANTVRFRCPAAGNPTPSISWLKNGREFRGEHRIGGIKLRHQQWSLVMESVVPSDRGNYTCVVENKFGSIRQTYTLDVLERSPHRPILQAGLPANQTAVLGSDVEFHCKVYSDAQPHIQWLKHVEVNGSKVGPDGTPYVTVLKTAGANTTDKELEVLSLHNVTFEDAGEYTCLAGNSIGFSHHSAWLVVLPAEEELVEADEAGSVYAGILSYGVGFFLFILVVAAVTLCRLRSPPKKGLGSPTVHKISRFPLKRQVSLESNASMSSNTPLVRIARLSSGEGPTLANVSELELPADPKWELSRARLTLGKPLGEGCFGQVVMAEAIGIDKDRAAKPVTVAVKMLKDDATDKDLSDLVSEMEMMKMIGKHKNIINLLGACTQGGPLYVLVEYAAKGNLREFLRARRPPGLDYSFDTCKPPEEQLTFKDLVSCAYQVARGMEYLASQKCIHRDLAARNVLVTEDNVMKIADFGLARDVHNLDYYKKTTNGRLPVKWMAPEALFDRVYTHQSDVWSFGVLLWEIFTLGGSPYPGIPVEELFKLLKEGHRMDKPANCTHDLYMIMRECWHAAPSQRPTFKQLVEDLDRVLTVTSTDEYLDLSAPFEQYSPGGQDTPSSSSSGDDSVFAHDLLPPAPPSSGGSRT
Sequence of Flt-3 (P36888 27-993, species assumed): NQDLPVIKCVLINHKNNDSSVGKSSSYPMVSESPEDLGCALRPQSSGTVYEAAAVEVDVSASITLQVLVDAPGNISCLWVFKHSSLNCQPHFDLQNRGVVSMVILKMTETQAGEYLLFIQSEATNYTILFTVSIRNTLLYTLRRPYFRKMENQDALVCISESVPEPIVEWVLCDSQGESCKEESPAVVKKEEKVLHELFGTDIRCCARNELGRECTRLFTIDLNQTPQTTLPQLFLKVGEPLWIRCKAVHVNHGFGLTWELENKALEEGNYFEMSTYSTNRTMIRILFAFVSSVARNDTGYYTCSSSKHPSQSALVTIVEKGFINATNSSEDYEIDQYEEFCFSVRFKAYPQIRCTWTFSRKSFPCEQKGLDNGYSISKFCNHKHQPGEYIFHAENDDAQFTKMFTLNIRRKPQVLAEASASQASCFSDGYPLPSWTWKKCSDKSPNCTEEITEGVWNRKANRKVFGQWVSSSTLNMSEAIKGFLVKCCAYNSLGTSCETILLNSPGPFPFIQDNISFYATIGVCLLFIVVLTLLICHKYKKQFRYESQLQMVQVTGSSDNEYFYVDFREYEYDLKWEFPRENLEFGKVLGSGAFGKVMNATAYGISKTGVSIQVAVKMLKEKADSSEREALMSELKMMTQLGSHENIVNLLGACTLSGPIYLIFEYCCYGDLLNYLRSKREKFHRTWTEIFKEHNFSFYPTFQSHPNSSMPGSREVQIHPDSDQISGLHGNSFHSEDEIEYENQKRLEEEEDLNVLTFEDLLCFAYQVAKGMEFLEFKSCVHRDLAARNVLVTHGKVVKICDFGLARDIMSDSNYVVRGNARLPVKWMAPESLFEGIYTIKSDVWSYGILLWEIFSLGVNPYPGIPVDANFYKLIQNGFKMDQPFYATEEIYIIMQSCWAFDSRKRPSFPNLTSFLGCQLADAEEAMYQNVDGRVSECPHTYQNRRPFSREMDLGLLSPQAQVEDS
Sequence of KDR (P35968 20-1356, species assumed): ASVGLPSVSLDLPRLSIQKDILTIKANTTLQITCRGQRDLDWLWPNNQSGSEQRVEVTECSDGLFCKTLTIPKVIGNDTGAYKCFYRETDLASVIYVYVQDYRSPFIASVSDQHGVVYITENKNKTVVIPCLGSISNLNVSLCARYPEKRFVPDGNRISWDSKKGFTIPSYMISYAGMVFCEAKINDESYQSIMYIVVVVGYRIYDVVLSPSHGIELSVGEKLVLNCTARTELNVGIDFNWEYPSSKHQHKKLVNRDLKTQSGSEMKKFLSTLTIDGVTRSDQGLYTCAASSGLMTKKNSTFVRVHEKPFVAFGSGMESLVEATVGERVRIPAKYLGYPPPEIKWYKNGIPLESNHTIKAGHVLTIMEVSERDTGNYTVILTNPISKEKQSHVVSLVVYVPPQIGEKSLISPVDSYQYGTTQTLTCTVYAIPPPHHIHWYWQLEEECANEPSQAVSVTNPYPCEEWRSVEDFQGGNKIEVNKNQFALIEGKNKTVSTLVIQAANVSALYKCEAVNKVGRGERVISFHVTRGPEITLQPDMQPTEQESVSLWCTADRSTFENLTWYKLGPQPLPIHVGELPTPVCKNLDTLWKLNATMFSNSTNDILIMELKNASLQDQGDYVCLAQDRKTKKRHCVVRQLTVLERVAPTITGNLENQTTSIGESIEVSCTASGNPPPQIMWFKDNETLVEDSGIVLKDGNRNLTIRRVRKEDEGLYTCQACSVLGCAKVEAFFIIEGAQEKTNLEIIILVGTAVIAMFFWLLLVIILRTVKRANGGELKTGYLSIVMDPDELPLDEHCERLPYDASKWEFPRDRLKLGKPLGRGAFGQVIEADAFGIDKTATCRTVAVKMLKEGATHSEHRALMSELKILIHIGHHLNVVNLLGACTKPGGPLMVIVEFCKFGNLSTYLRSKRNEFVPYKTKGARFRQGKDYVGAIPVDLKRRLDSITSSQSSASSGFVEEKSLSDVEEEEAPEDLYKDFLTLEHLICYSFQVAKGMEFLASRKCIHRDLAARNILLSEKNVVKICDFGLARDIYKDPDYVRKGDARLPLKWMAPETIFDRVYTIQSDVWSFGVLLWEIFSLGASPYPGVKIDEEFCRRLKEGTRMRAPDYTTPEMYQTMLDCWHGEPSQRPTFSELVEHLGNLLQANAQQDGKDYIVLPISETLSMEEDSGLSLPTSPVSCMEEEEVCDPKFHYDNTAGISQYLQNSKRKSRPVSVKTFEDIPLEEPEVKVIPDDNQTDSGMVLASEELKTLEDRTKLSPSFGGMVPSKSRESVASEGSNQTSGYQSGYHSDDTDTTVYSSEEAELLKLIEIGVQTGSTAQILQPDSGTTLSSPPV
Sequence of PDGFR-β (P09619 33-1106, species assumed): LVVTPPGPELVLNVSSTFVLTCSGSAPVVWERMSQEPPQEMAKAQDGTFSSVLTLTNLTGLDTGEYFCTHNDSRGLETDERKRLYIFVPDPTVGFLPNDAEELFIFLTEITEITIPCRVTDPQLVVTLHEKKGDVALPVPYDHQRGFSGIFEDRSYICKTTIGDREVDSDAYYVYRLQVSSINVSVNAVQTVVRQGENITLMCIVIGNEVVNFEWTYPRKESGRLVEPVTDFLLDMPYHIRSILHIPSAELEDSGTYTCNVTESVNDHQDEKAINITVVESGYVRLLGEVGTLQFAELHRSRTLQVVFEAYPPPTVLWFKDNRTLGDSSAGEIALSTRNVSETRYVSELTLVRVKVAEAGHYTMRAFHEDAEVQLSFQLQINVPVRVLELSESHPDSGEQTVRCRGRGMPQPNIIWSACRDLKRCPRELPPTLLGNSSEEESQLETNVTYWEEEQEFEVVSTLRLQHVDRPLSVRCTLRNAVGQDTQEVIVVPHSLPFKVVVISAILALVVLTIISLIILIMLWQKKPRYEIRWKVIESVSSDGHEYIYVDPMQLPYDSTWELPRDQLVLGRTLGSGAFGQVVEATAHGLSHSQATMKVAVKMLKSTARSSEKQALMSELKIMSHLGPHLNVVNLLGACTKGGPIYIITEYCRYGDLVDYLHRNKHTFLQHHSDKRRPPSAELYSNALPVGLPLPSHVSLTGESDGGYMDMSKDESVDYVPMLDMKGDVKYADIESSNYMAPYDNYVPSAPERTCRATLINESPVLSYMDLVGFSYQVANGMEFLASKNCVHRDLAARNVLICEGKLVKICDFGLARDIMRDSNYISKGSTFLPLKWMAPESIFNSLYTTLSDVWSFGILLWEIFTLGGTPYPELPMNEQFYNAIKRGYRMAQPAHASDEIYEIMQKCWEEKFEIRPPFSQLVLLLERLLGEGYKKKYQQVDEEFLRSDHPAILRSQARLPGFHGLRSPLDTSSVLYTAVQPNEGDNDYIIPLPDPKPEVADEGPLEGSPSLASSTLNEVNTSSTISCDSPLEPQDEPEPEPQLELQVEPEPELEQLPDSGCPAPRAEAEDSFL
Sequence of Src (P12931 whole entry, looked up, species assumed): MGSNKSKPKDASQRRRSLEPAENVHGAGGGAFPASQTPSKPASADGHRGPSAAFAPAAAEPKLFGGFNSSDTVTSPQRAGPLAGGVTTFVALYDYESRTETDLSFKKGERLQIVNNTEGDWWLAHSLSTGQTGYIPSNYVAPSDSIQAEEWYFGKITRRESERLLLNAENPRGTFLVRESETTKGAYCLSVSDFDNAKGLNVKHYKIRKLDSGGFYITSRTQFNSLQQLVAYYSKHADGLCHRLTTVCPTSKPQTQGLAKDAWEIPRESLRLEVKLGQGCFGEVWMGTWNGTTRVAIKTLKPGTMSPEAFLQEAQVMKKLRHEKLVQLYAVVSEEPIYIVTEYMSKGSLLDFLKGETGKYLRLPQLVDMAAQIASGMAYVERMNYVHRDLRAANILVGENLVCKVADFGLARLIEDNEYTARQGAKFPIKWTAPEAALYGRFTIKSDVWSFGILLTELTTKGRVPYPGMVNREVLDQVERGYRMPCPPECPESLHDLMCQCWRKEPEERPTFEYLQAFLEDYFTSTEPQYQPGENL
Sequence of DDR2 (Q16832 563-849): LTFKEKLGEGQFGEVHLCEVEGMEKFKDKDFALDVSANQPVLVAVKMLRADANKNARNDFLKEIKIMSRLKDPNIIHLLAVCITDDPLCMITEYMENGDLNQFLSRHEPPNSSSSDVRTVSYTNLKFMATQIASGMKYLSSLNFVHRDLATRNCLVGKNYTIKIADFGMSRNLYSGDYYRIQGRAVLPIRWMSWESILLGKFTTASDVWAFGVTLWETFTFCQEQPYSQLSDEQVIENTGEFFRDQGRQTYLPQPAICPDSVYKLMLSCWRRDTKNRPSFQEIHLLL

COC(=O)c1ccc2c(c1)NC(=O)/C2=C(\Nc1ccc(N(C)C(=O)CN2CCN(C)CC2)cc1)c1ccccc1 [Nintedanib]
significant cytotoxicity: cytotoxic activity on MRC-5 [1] | cytotoxic activity on Beas-2B [2]
improved significantly: BLM-induced lung injury, H&E staining ([3]; Effect example 4, S15 30, 60, 90 mg/kg, Nintedanib 30 mg/kg, oral qd 12 days)
significantly improved: BLM-induced lung injury, H&E staining ([3]; Effect example 7, 30 mg/kg oral qd 12 days)

CC(NC(=O)c1ccc(C2CC2)c(-c2ccc3nc(Nc4cnn(C5CC5)c4)ncc3c2)c1)c1cccc(C(F)(F)F)c1 (stereo not drawn) [Compound S16, 4-cyclopropyl-3-(2-((1-cyclopropyl-1H-pyrazol-4-yl)amino)quinazolin-6-yl)-N-(1-(3-(trifluoromethyl)phenyl)ethyl)benzamide]
> 1 µM: IC50 [5] | IC50 [6] | IC50 [7] | IC50 [8] | IC50 [9] | IC50 [10] | IC50 [11] | IC50 [12] | IC50 [13] | IC50 [14] | IC50 [15] | IC50 [16] | IC50 [17] | IC50 [18] | IC50 [19] | IC50 [20] | IC50 [21] | IC50 [22] | IC50 [23] | IC50 [24] | IC50 [25]
good selectivity: selectivity for kinases [26]
0.0383 ± 0.0028 µM: IC50 [4]
